From article doi:10.1101/2024.07.10.602890, “H105A peptide eye drops promote photoreceptor survival in murine and human models of retinal degeneration” (bioRxiv, 2024)
Ends that are not written are not given here.

How the values were obtained:
[1] = test system: rd10 and rd10/Serpinf1−/− mice; assay: Electroretinography (ERG) a-wave and b-wave after peptide eye drops; format: in vivo, mouse; conditions: for ERG a- and b-wave responses relative to vehicle-treated eyes: dark-adapted rd10 and rd10/Serpinf1−/− mice at P21, daily eye drops, n = 8
From the text: Fig. 5: Effect of daily eyedrops of PEDF peptides on ERG a-wave and b-wave retinal function (A and B) Representative ERG waveforms for rd10 (A) and rd10/Serpinf1^−/− (B) mice at P21 in response to a light flash (1 cd.s/m^2). Amplitude (y-axis) is plotted against time in milliseconds (ms, x-axis). Treatments are indicated to the right of each plot and are color coded, with control wild type C57Bl/6J mice without peptide treatment shown in blue. A-wave and b-wave are indicated by arrows. (C and D) Photoreceptor a-wave amplitudes. Averages of photoreceptor a-wave amplitudes for rd10 (C) and rd10/Serpinf1^−/− (D) mice as a function of light intensity (cd/s.m^2, x-axis). Responses of animals treated with 17-mer are shown in green, H105A in black, and vehicle (HBSS) in red. Wildtype responses are shown in blue. (E and F) Bipolar cell b-wave amplitudes. Averages of bipolar cell b-wave amplitudes for rd10 (E) and rd10/Serpinf1^−/− (F) mice as a function of light intensity (cd/s.m^2, x-axis), with treatments indicated as in panels (C) and (D). The number of mice evaluated for the data shown in Panels C-F were n = 8 for each rd10, rd10/Serpinf1^−/− and wild type. Each data point represents the average ± SD of each genotype, analyzed by unpaired t-test. Statistical significance between H105A and vehicle is indicated by ##p < 0.01, ###p < 0.001, ####p < 0.0001, and between H105A and 17-mer by **p < 0.01, ***p < 0.001, ****p < 0.0001.
Electroretinogram (ERG) for rd10 and rd10/Serpinf1^−/− mice were recorded in both eyes of each animal using an Espion E2 system with ColorDome (Diagnosys LLC) with a heated surface and mice were dark-adapted overnight as previously described ([29]). Mice were placed on the heated surface and electrodes were placed in the mouth and a subdermal platinum needle electrode was placed in the back of the mouse to serve as ground. Responses were elicited with increasing light impulses with intensity from 0.0001 to 10 cd-seconds per meter squared (cd.s/m^2). Amplitudes for a-wave were measured from stimulus to the trough of the a-wave and b-wave amplitudes were measured from a-wave to b-wave trough or peak. The values from the a and b waves for both eyes were exported to Microsoft Excel to obtained amplitude values for each mouse.
Figure S2. Effects of extending the timeline or administering eye drops of 17-mer[H105A] peptide every other day in rd10 mic e.
Eye drops of H105A peptide solution were administered to r d1 0 mice either daily (Fig. S2A) or every other day (Fi g. S 2D). A total of 5 µl of a solution containing H105A peptide at 1 mg/ml in HBSS were applied as eye drops. The vehicle HBSS was added as eye drops in the contralateral eyes. When eye […]
intensity light at P25 (Fig. S2C). When eye drops of H105A were added every other day, a rescue in the ONL thickness in r d10 mice compared to vehicle was also observed (Fi g. S 2E), with an improvement in a- […]
efficacy of peptide H105A eye drops either daily or every other day in an extended timeline to stabilize photoreceptor morphology and light response function loss in r d10 mice, however, these were less efficacious than daily H105A peptide eye drops. […]
(C) ERG of r d1 0 mice at P25 and treated as in Fi g. […] For ERG data shown, the number of mice evaluated were n =5 for rd10 and each data point corresponds to the average ± SD of each genotype by unpaired t-test. *p < 0.05, **p < 0.01, * ** p < 0 .001 , ****p < 0.0001. […]

Rho^P23H/+ mice = assay: H105A eye drops in Rho P23H/+ mice: BAX/BCL2 immunofluorescence, ONL and OS thickness; format: in vivo, mouse
Experimental: Fig. 6: Effects of eye drops containing H105A peptide in the photoreceptors of RhoP23H/+ mice (A) Scheme of experimental design. Daily peptide eye drops (5 μl of 1mg/ml peptide) were applied to mice starting at P14 until P19 when immunofluorescence of retinal cross sections was performed. The contralateral control eyes were treated with vehicle HBSS. (B) Immunostaining was performed with antibodies against BAX or BCL2 (green), and DAPI (blue). Histograms show quantification of immunofluorescence intensity for BAX and BCL2 markers. […] Each individual data point represents the average of one retina, with statistical significance determined by unpaired t-test (****p < 0.00001). Scale bar = 10 μm. […] (D) Quantification of ONL thickness represented in the spider graph confirmed a significant preservation in the ventral retina. […] Presented as average ± SEM, with statistics performed using One-way ANOVA * p<0.05
Eyes from Rho^P23H/+ mice eyes were enucleated and fixed in Davidson’s fix (Formaldehyde 8% (Merck, cat. F8775); Ethanol 32% (Carlo Erba, cat. 414608); Acetic Acid 10% (Merck, cat. 695092) over-night. After embedding in paraffin, 14 μm sections were collected. For TUNEL, sections were treated with 0.1 M Citrate Buffer pH 6 (Tri-sodium Citrate 10 mM (Carlo Erba, cat. 368007); Citric Acid 0.2 mM (Merck, cat: 251275) in microwave for 5 minutes, then labeling was performed for one hour at 37°C using a In Situ Cell Death Detection Kit (Merck, cat. 12156792910). Rod photoreceptors were labeled with anti-RHO 1D4 antibody followed by Alexa Fluor 568 anti-mouse secondary antibody (see Table S3). Cone photoreceptors were labeled with peanut agglutinin (PNA, Vector Laboratories, cat. FL-1071). GFP localization in control transduced retinas was identified with specific anti-GFP antibodies and Alexa Fluor 488 anti-mouse secondary antibody (see Table S3). For nuclear staining, 0.1 μg/mL DAPI was used. Slides were mounted with Mowiol 4–88 (Merck) and images acquired with a Zeiss Axio Imager A2 fluorescence microscope. To count TUNEL positive cells the RETINA Analysis Tool kit for ImageJ was used ([52]).
To generate spider plots, the ONL thickness was measured from images acquired with light microscopy of the retina sections stained with H&E or images of retina sections stained with DAPI with a dorsal-ventral orientation. The ONL thickness in the entire retina sections was measured at 5 different positions from both sides of the optic nerve (ON) using ImageJ, as described before ([28]). Alternatively, for DAPI stained images, a customed macro implemented in ImageJ was used to select only the ONL.

[2] = daily eye drops 5 μl of 1 mg/ml P14 to P19, vs contralateral HBSS

Sequence	ERG a- and b-wave responses relative to vehicle-treated eyes [1]	ERG a-wave ([1]; rd10 mice, eye drops every other day P15 until P23, ERG at P25, n = 5)	BAX level (immunofluorescence) (Rho^P23H/+ mice; [2])	BCL2 level (immunofluorescence) (Rho^P23H/+ mice; [2])	outer segments (OS) of rod photoreceptors labeled by rhodopsin (Rho^P23H/+ mice; daily eye drops P14 to P19, P19, n = 9)	ONL thickness (Rho^P23H/+ mice; daily eye drops P14 to P19, assessed at P19)
QRTESIIARALYYDLIS [H105A]	protected visual function	improvement	attenuated the levels of BAX	increased BCL2	significantly preserved	significant preservation in the ventral part of the retina
QRTESIIHRALYYDLIS [17-mer]	protected visual function					
